Values of other authors in patent US8937081B2, “Statin bioavailability enhancement delivery composition” (PruGen IP Holdings, Inc., priority 2011, dated 2015).

Key:
hepatocytes = settings: in hepatocytes
[1] = among the marketed statins

In the case of `CC(C)c1nc(N(C)S(C)(=O)=O)nc(-c2ccc(F)cc2)c1/C=C/[C@@H](O)C[C@@H](O)CC(=O)O` [rosuvastatin], the IC50 (hepatocytes) is given as “low”.
In the case of `COCc1c(C(C)C)nc(C(C)C)c(/C=C/[C@@H](O)C[C@@H](O)CC(=O)O)c1-c1ccc(F)cc1` [cerivastatin], the “percentage of serious adverse effects” value [1] is given as “largest percentage of serious adverse effects”.
